Measured values as given in patent publication US8796320B2, “1,3,4-Oxadiazole-2-carboxamide compound” (General Incorporated Association Pharma Valley Project …, priority 2009, dated 2014).

Key:
STAT3 = STAT3 transcription inhibition test (reporter gene method); assay type: cell-based; settings: Homo sapiens; compound at 100 μM; STAT3 reporter HeLa stable cell line, oncostatin M 10 ng/mL, 4 hours; read-out: STAT3 transcription inhibitory activity (%)
Method: The inhibition of STAT3 transcription was evaluated by using STAT3 reporter HeLa stable cell line (Panomics Inc., catalog No. RC0003), a cell line for the reporter gene method, and performing the following method according to the appendix included therein.
STAT3, reporter HeLa stable cell line subcultured and maintained in a Dulbecco's modified Eagle's medium (DMEM) containing 10% fetal bovine serum, 100 units/mL penicillin, and 100 μg/mL streptomycin was inoculated at a concentration of 40000 cells/well to a 96-well plate (white) and attached to the plate by overnight incubation at 37° C. under 5% CO2. After addition of each evaluation compound adjusted to various concentrations (adjusted with a DMSO solution), the cells were precultured for 1 hour. Then, oncostatin M for activating STAT3 was added at a final concentration 10 ng/mL, and the cells were further cultured at 37° C. under 5% CO2 for 4 hours. Luciferase activity derived from the cells was determined using Steady-Glo Luciferase Assay System (Promega Corp.), and STAT3 transcriptional activity scores were calculated according to the following formula: STAT3 transcriptional activity score (%)=100×(Lchem−L0)/(LDMSO−L0) • L0: luminescence intensity obtained without stimulation with oncostatin M • Lchem: luminescence intensity obtained by the addition of a test sample • LDMSO: luminescence intensity obtained by the addition of only a solvent for dissolving a test sample
The test results were indicated in the rate of inhibition of STAT3 transcription by each compound at a concentration of 100 μM.

[1] = test system: human lymphoma SCC-3 cells; assay: Evaluation using human lymphoma-transplanted nude mice; assay type: in vivo, nude mouse; settings: 80 mg/kg orally once a day for 5 days, p < 0.05
Method: 1×10^6 human lymphoma SCC-3 cells (containing Matrigel) were subcutaneously transplanted to the flank part of each 6-week-old male nude mouse (BALB/cA-nu/nu, CLEA Japan, Inc.). After the transplantation, the tumor volumes [major axis (mm) and minor axis (mm)] of the SCC-3 cancer-bearing mice were measured using an electronic vernier caliper (CD-10, Mitutoyo Corp.), and tumor volumes [mm^3: (major axis)×(minor axis)^2/2] were calculated. SCC-3 cancer-bearing mice whose tumor volume reached 50 to 300 mm^3 were selected and divided based on the tumor volumes into groups each containing 5 individuals. A test compound was suspended in a 0.5% methylcellulose solution and orally administered at a dose of 0.01 mL/g body weight once a day for 5 days (Day 0 (administration initiation day) to Day 4). To a control group, none was administered. The tumor volumes of the SCC-3 cancer-bearing mice were measured every day from the initiation of test compound administration to evaluate antitumor effect. The antitumor effect was assessed by calculating T/C (%) values according to the following formula: • V: tumor volume on every assay day • V0: tumor volume on the administration initiation day (V/V0 of the test compound group)/(V/V0 of the control group)×100
Validity determination criteria for this system adopted the method of Inaba, et al. (Cancer, 1989, 64, 1577-1582).

MDA-MB-468 = MDA-MB-468 cell growth inhibitory activity; assay type: cell-based; settings: Homo sapiens; compound at 20 μM; MDA-MB-468, 72 hours
Method: MDA-MB-468 diluted with phenol red-free DMEM/F-12 (GIBCO; 10% FBS, 20 units/ml penicillin/streptomycin) was inoculated at a concentration of 2000 cells/well to a 96-well plate (Greiner Bio-One) and cultured overnight at 37° C. in the presence of 5% CO2. Then, a test sample solution (containing 2 (v/v)% DMSO) adjusted to 10 μM was added thereto at a concentration of 10 μL/well and contacted with the cells at 37° C. for 72 hours in the presence of 5% CO2. Each well was washed three times with a medium. Then, after addition of 100 μL/well of a medium and 20 μL/well of CellTiter 96 AQueous, One Solution Reagent (Promega Corp.), the cells were incubated at 37° C. for 2 hours in the presence of 5% CO2. Absorbance at 495 nm was measured using Multiplate reader (Molecular Devices, Inc.), and the rate of inhibition of cell growth was calculated according to the following formula: Rate of inhibition of cell growth (%)=100−100×(Abschem−bkgd)/(AbsDMSO−bkgd) • Abschem: absorbance obtained by the addition of a test sample • AbsDMSO: absorbance obtained by the addition of only a solvent for test sample dissolution • bkgd: absorbance obtained by the addition of CellTiter 96 AQueous One Solution Reagent to a medium for cell culture
The test results were indicated in the rate of inhibition of cell growth by each compound at a concentration of 20 μM.

[2] = test system: Human lymphoma SCC-3 cells; assay: SCC-3 cell growth inhibition test (MTT method); assay type: cell-based; settings: 72-hour culture
Method: Human lymphoma SCC-3 cells purchased from Japan Health Sciences Foundation were cultured for […] at a density of 5000 cells/well in a 96-well plate with RPMI1640 (Sigma-Aldrich Corp.) containing 10% fetal bovine serum (FBS; GIBCO) as a culture medium.
Simultaneously with cell inoculation, each test compound diluted to various concentrations with an RPMI medium was added to each well. After 72-hour culture, cell growth inhibitory activity was determined by the MTT method (J. Immunol. Methods, 1993, 65, 581-593) using a microplate reader (NJ-2300, BioTek Instruments, Inc.).
The test results were indicated in a concentration (IC50) at which 50% cell growth was inhibited.

Compound	inhibition at 100 µM (STAT3) [%]	T/C (%) ([1]; day 11 after administration)	T/C (%) ([1]; day 6 after administration)	inhibition at 20 µM (MDA-MB-468) [%]	IC50 [2] [µM]	T/C (%) ([1]; day 18 after administration)
CC(C)(C)c1ccc(-c2cccc(C(=O)Nc3nnc(-c4ccco4)o3)c2)cc1 [Compound Ia-14, 4′-tert-Butyl-N-[5-(2-furyl)-1,3,4-oxadiazol-2-yl]-3-biphenylcarboxamide]	57	57	–	–	–	–
CCCCOC(=O)c1ccc(-c2cccc(C(=O)Nc3nnc(-c4ccco4)o3)c2)cc1 [Compound Ia-23, 4′-n-Butoxycarbonyl-N-[5-(2-furyl)-1,3,4-oxadiazol-2-yl]-3-biphenylcarboxamide]	–	–	55	–	–	–
O=C(Nc1nnc(-c2ccco2)o1)c1cc(-c2ccccc2)nc2nc(N3CCCCC3)sc12 [Compound Ib-1, N-[5-(2-Furyl)-1,3,4-oxadiazol-2-yl]-5-phenyl-2-piperidino-7-thiazolo[4,5-b]pyridinecarboxamide]	> 100	–	–	96	0.52	52
